Numbered stars: 1 amine (or outer) side, 2 acyl side, 3 side chain; on linkers, the order of the positions; unused ones are H or OH. Side chains are listed from the residue outwards. Peptide text beside a SMILES is read from it. * marks the point of attachment. C20 diacid = O=C(O)CCCCCCCCCCCCCCCCCCC(=O)*; γGlu = O=C(O)[C@H](CCC(=O)[*:2])N[*:1]; AEEA = NCCOCCOCC(=O)O
Target: T1, Human CRF1 receptor (Homo sapiens, UniProt P34998)
T1 construct: host or cells: CHO-K1 (membrane preparation)
T1 sequence (P34998 24-415): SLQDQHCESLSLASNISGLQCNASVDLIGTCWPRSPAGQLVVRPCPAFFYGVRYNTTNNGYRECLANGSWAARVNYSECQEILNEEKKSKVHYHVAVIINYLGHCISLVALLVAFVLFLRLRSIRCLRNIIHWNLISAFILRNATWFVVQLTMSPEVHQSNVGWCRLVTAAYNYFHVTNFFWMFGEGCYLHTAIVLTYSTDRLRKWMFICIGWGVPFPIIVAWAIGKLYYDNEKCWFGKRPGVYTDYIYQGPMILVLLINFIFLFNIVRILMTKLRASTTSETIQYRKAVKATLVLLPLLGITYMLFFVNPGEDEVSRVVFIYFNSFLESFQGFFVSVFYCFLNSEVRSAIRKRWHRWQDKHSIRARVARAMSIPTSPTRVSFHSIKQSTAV
Experiment: CRF1 receptor CHO cell β-Arrestin recruitment assay (PathHunter)
Format: cell-based
Conditions: CHO-K1 cells, 0.1% ovalbumin
Protocol: The purpose of this investigation was to test the in vitro agonistic activity (potency) of the compounds of the invention to receptor subtype CRF1 and CRF2. […] The native, human Ucn1 and Ucn2 peptides were included as references. Assay principle: Activated G-protein coupled receptors (GPCRs) can interact with the Arrestin family of signalling proteins. The potency of peptides for CRF induced Arrestin recruitment is determined using the PathHunter Enzyme Fragment Complementation approach substantially as described in von […] et al., FASEB J., 2007, 3819, 26 and Hamdouchi et al., J. Med. Chem., 2016, 59, 10891-10916. The target GPCR is tagged with the small fragment of β-gal called ProLinkTM, a low affinity version of enzyme donor and co-expressed in cells stably expressing β-Arrestin tagged with enzyme acceptor. Activation of the GPCR stimulates binding of β-Arrestin to the ProLink-tagged GPCR, forcing complementation of ProLink and enzyme acceptor, resulting in the formation of an active β-gal enzyme. The resulting active enzyme hydrolyses substrate present in the PathHunter detection reagents to generate light. […] Plates were first incubated for 90 minutes in a 37° C., 5% CO2 incubator and then 5 μL of PathHunter detection reagent was added (DiscoveRx, 93-0001) and the plates were incubated at room temperature for 60 minutes after which the luminescence signal was measured (BMG […]). […]

EC50 [µM] | Compound
> 10 | CC[C@H](C)[C@H](NC(=O)[C@H](CCC(=O)O)NC(=O)[C@H](C)NC(=O)[C@H](CC(N)=O)NC(=O)[C@@H](NC(=O)[C@@H](NC(=O)[C@H](C)NC(=O)[C@H](CCC(N)=O)NC(=O)[C@H](CCC(=O)O)NC(=O)[C@H](CCCNC(=N)N)NC(=O)[C@H](C)NC(=O)[C@H](C)NC(=O)[C@H](CCCNC(=N)N)NC(=O)[C@H](C)NC(=O)[C@H](CCCNC(=N)N)NC(=O)[C@H](C)NC(=O)[C@H](CCC(N)=O)NC(=O)[C@H](CCC(=O)O)NC(=O)[C@H](CC(C)C)NC(=O)[C@H](CC(C)C)NC(=O)[C@@H](NC(=O)[C@H](CCC(N)=O)NC(=O)[C@H](CC(C)C)NC(=O)[C@H](CC(C)C)NC(=O)CNC(=O)[C@@H](NC(=O)[C@@H]1CCCN1C(=O)[C@@H](NC(=O)[C@H](CC(=O)O)NC(=O)[C@H](CC(C)C)NC(=O)[C@H](CO)NC(=O)[C@H](CC(C)C)NC(=O)[C@@H](NC(=O)[C@@H](NC(=O)[C@@H](N)CCCCNC(=O)COCCOCCNC(=O)COCCOCCNC(=O)CC[C@H](NC(=O)CC[C@H](NC(=O)CC[C@H](NC(=O)CCCCCCCCCCCCCCCCCCC(=O)O)C(=O)O)C(=O)O)C(=O)O)[C@@H](C)CC)C(C)C)C(C)C)[C@@H](C)CC)[C@@H](C)CC)[C@@H](C)O)[C@@H](C)O)C(=O)N[C@@H](CC(C)C)C(=O)N[C@@H](C)C(=O)N[C@@H](CCC(=O)O)C(=O)N[C@H](C(N)=O)C(C)C [Compound 3] (H-K([AEEA-AEEA-γGlu-γGlu-γGlu-C20 diacid])IVLSLDVPIGLLQILLEQARARAAREQATTNAEILAEV-NH2)
> 10 | CC[C@H](C)[C@H](NC(=O)[C@H](CCC(=O)O)NC(=O)[C@H](C)NC(=O)[C@H](CC(N)=O)NC(=O)[C@@H](NC(=O)[C@@H](NC(=O)[C@H](C)NC(=O)[C@H](CCC(N)=O)NC(=O)[C@H](CCC(=O)O)NC(=O)[C@H](CCCNC(=N)N)NC(=O)[C@H](C)NC(=O)[C@H](C)NC(=O)[C@H](CCCNC(=N)N)NC(=O)[C@H](C)NC(=O)[C@H](CCCNC(=N)N)NC(=O)[C@H](C)NC(=O)[C@H](CCC(N)=O)NC(=O)[C@H](CCC(=O)O)NC(=O)[C@H](CC(C)C)NC(=O)[C@H](CC(C)C)NC(=O)[C@@H](NC(=O)[C@H](CCC(N)=O)NC(=O)[C@H](CC(C)C)NC(=O)[C@H](CC(C)C)NC(=O)CNC(=O)[C@@H](NC(=O)[C@@H]1CCCN1C(=O)[C@@H](NC(=O)[C@H](CC(=O)O)NC(=O)[C@H](CC(C)C)NC(=O)[C@H](CO)NC(=O)[C@H](CC(C)C)NC(=O)[C@@H](NC(=O)[C@@H](NC(=O)[C@@H](N)CCCCNC(=O)COCCOCCNC(=O)COCCOCCNC(=O)CC[C@H](NC(=O)CC[C@H](NC(=O)CC[C@H](NC(=O)CCCCCCCCCCCCCCCCCCC(=O)O)C(=O)O)C(=O)O)C(=O)O)[C@@H](C)CC)C(C)C)C(C)C)[C@@H](C)CC)[C@@H](C)CC)[C@@H](C)O)[C@@H](C)O)C(=O)N[C@@H](CC(C)C)C(=O)N[C@@H](CCC(=O)O)C(=O)N[C@@H](CCCNC(=N)N)C(=O)N[C@H](C(N)=O)C(C)C [Compound 4] (H-K([AEEA-AEEA-γGlu-γGlu-γGlu-C20 diacid])IVLSLDVPIGLLQILLEQARARAAREQATTNAEILERV-NH2)

— patent US20230233650A1, “NOVEL FATTY ACID MODIFIED UROCORTIN 2 DERIVATIVES AND THE USES THEREOF” (Novo Nordisk A/S, priority 2021, published 2023)
